In patent publication US9284318B2, “Protein kinase inhibitors” (Pharmascience, Inc., priority 2011, dated 2016) one finds EC50 and IC50 data, which are given here for 22 molecules.

For one experiment, the system named is MV4-11 cells. Description: Human MV4-11 biphenotypic B myelomonocytic leukemia cell survival assay. Format: cell-based. The note with it: cell survival at 72h, Cell Titer-Glo. On the procedure: Human MV4-11 Biphenotypic B Myelomonocytic Leukemia Cell Survival Assay
Biphenotypic B myelomonocytic leukemia MV4-11 cells (ATCC CRL-9591) were cultured in suspension at 37° C., 5% CO2 in complete medium (RPMI supplemented with 10% FBS, 1% penicillin/streptomycin). One day prior to treatment, cells per seeded in 96-well plates at 8000 cells/well in complete medium. The following day, triplicate wells were treated with compound curves of 100, 1000 or 10,000 nM starting concentration according to compound potency. Cell survival was measured 72h later by Cell Titer-Glo Luminescent Assay (Promega). Luminescence was read using a Tecan Infinite F200 microplate reader. EC50 values (50% survival in the presence of compound as compared to vehicle treated controls) were calculated from non-linear fit dose response compound curves using CambridgeSoft BioAssay software (Perkin Elmer).

The target in experiment [1] is T1, recombinant human colony stimulating factor 1 receptor (FMS) (Homo sapiens, UniProt P07333).
T1 construct: containing the catalytic domain (amino acids 538-910); His tag; purchased Invitrogen; host or cells: insect cells
T1 sequence (P07333 538-910): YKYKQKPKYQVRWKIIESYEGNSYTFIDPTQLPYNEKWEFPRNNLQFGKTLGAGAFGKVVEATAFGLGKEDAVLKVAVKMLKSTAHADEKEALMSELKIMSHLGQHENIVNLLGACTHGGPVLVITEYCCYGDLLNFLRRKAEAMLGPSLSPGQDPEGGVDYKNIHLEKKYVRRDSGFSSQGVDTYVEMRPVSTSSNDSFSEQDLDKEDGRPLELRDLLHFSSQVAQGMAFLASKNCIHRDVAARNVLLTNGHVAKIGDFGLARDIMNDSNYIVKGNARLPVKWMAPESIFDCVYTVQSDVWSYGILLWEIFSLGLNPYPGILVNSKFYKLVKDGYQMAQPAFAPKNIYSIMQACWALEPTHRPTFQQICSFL
Nature of the experiment: Biochemical cFMS (CSF1R) fluorescence polarization kinase assay. The note with it: 10 μM ATP, 100 μM substrate, 60 minutes. The method, then:
Biochemical cFMS (CSF1R) Assay:
Fluorescence polarization-based kinase biochemical assays were performed in 384 well-plate format using histidine tagged recombinant human colony stimulating factor 1 receptor (FMS) supplied from Invitrogen™ (containing the catalytic domain (amino acids 538-910), expressed in insect cells and activated in vitro via auto phosphorylation) and a modified protocol of the KinEASE™ FP Fluorescein Green Assay supplied from Millipore™.
Kinase reactions were performed in 384 well plate format at room temperature for 60 minutes in presence of 100 μM substrate, 10 μM ATP and variable test article concentrations. The reaction was stopped with EDTA/KinEASE™ detection reagents and the polarization measured on a Tecan 500 instrument. From the dose-response curve obtained, the IC50 was estimated using Graph pad Prisms® using a non linear fit curve.

The test system of experiment [2] is M-NFS-60 M-CSF-dependent myeloid leukemia cells. Nature of the experiment: Murine M-CSF-dependent M-NFS-60 cell survival assay. Format: cell-based. The note with it: Mus musculus; cell survival at 72 hours, 20 ng/ml M-CSF, Cell Titer-Glo. The method, then:
Cellular Assays: Murine M-CSF-Dependent M-NFS-60 Cell Survival Assay
Murine M-NFS-60 M-CSF-dependent myeloid leukemia cells were purchased from ATCC (CRL-1838). Cells were routinely cultured at 37° C., 5% CO2 in complete medium (RPMI supplemented with 10% FBS, 1% penicillin/streptomycin, 50 uM beta mercaptoethanol) containing 30 ng/ml recombinant murine M-CSF (Peprotech 315-02). For survival assays, cells were transferred to depleted medium (complete medium depleted of M-CSF) for 24 hours prior to initiation of each experiment. M-CSF-starved cells were harvested and re-suspended in complete medium containing 20 ng/ml M-CSF. Cells were seeded at 25,000 cells/well in 96-well plates and incubated for 1 hour at 37° C., 5% CO2. Cells were treated with 1 uM or 10 uM compound curves in triplicate and cell survival was measured 72 hours later by Cell Titer-Glo Luminescent Assay (Promega). Luminescence was read using a Tecan Infinite F200 microplate reader. EC50 values (50% survival in the presence of compound as compared to vehicle treated controls) were calculated from non-linear fit dose response compound curves using GraphPad Prism Software.

With `C[C@@H](NC(=O)Nc1ccc(-n2c3c(c4ncnc(N)c42)CCC3)cc1)c1ccccc1` [Compound 45], the EC50 is less than 100 nM in the experiment on MV4-11 cells and 100 to 1000 nM in experiment [2]. Further, the IC50 in experiment [1] was 100 to 1000 nM.
For `Nc1ncnc2c3c(n(-c4ccc(NC(=O)NCCc5ccccc5)cc4)c12)CCC3` [Compound 46], the values for the concentration for a half-maximal effect (EC50) (in the experiment on MV4-11 cells; in experiment [2]) were less than 100 nM and 100 to 1000 nM, respectively. Further, in experiment [1], the IC50 lay in the range of 100 to 1000 nM.
For `Cc1ccc(F)c(NC(=O)Nc2ccc(-n3c4c(c5ncnc(N)c53)COC4)cc2)c1` [Compound 47], the concentration for a half-maximal effect (EC50) (in the experiment with MV4-11 cells; in experiment [2]) was less than 100 nM throughout. In addition, the half-maximal inhibitory concentration (IC50) in experiment [1] fell in the range of 100 to 1000 nM.
On to `Nc1ncnc2c3c(n(-c4ccc(NC(=O)Nc5cccc(C(F)(F)F)c5)cc4)c12)COC3` [Compound 48], for which the concentration for a half-maximal effect (EC50) with MV4-11 cells was less than 100 nM; in experiment [2], 100 to 1000 nM. In experiment [1], the IC50 is less than 100 nM.
As to `Nc1ncnc2c3c(n(-c4ccc(NC(=O)Nc5ccc(F)cc5F)cc4)c12)CCC3` [Compound 50], the EC50 (in the experiment with MV4-11 cells; in experiment [2]) was less than 100 nM each time. For the same molecule, the 50% inhibitory concentration (IC50) in experiment [1] was 100 to 1000 nM.
On to `COc1ccc(NC(=O)Nc2ccc(-n3c4c(c5ncnc(N)c53)CCC4)cc2)c(F)c1` [Compound 54], for which the EC50 (in the experiment on MV4-11 cells; in experiment [2]) was less than 100 nM in each case. In addition, the half-maximal inhibitory concentration (IC50) in experiment [1] is less than 100 nM.
For the molecule `COc1ccc(NC(=O)Nc2ccc(-n3c4c(c5ncnc(N)c53)CCC4)cc2)cc1C(F)(F)F` [Compound 55], the EC50 in the experiment on MV4-11 cells is less than 100 nM; in experiment [2], 100 to 1000 nM. Further, the IC50 in experiment [1] lay in the range of 100 to 1000 nM.
For `COc1ccc(NC(=O)Nc2ccc(-n3c4c(c5ncnc(N)c53)CCC4)cc2)cc1F` [Compound 56], the 50% effective concentration (EC50) (in the experiment with MV4-11 cells; in experiment [2]) was less than 100 nM in each case. Further, the half-maximal inhibitory concentration (IC50) in experiment [1] is less than 100 nM.
On to `Nc1ncnc2c3c(n(-c4ccc(NC(=O)Nc5cccc(OC(F)F)c5)cc4)c12)CCC3` [Compound 57], for which the EC50 (with MV4-11 cells; in experiment [2]) was less than 100 nM each time. Besides, the half-maximal inhibitory concentration (IC50) in experiment [1] is 100 to 1000 nM.
On to `COc1ccc(C(F)(F)F)cc1NC(=O)Nc1ccc(-n2c3c(c4ncnc(N)c42)CCC3)cc1` [Compound 58], for which the figures for the 50% effective concentration (EC50) (with MV4-11 cells; in experiment [2]) were less than 100 nM and 100 to 1000 nM, respectively. In experiment [1], the half-maximal inhibitory concentration (IC50) was 100 to 1000 nM.
As to `Nc1ncnc2c3c(n(-c4ccc(NC(=O)Nc5ccc(Cl)c(C(F)(F)F)c5)cc4)c12)CCC3` [Compound 59], the concentration for a half-maximal effect (EC50) is less than 100 nM in the experiment on MV4-11 cells and 100 to 1000 nM in experiment [2]. For the same molecule, the IC50 in experiment [1] lay in the range of 100 to 1000 nM.
Regarding `Nc1ncnc2c3c(n(-c4ccc(NC(=O)Nc5cc(C(F)(F)F)ccc5F)c(F)c4)c12)CCC3` [Compound 62], the results for the 50% effective concentration (EC50) (with MV4-11 cells; in experiment [2]) were less than 100 nM and 100 to 1000 nM, respectively. In addition, the IC50 in experiment [1] was 100 to 1000 nM.
Regarding `Nc1ncnc2c3c(n(-c4ccc(NC(=O)Nc5cccc(C(F)(F)F)c5)c(F)c4)c12)CCC3` [Compound 63], the EC50 (with MV4-11 cells; in experiment [2]) was less than 100 nM in each case. Besides, the IC50 in experiment [1] lay in the range of 100 to 1000 nM.
With `CS(=O)(=O)c1ccc(NC(=O)Nc2ccc(-n3c4c(c5ncnc(N)c53)CCC4)cc2)cc1` [Compound 64], the EC50 in the experiment on MV4-11 cells is 100 to 1000 nM; in experiment [2] it was greater than 1000 nM. Besides, the IC50 in experiment [1] was in the range of 100 to 1000 nM.
For the molecule `N#Cc1ccc(NC(=O)Nc2ccc(-n3c4c(c5ncnc(N)c53)CCC4)cc2)cc1` [Compound 65], the concentration for a half-maximal effect (EC50) in the experiment with MV4-11 cells is less than 100 nM; in experiment [2], 100 to 1000 nM. Moreover, the half-maximal inhibitory concentration (IC50) in experiment [1] is greater than 1000 nM.
For `N#Cc1cccc(NC(=O)Nc2ccc(-n3c4c(c5ncnc(N)c53)CCC4)cc2)c1` [Compound 66] the same measures were less than 100 nM, 100 to 1000 nM and 100 to 1000 nM.
For the molecule `Nc1ncnc2c3c(n(-c4ccc(NC(=O)Nc5cc(C(F)(F)F)ccc5F)cc4)c12)COC3` [Compound 67], the concentration for a half-maximal effect (EC50) is less than 100 nM with MV4-11 cells and 100 to 1000 nM in experiment [2]. Further, the IC50 in experiment [1] fell in the range of 100 to 1000 nM.
For `Nc1ncnc2c3c(n(-c4ccc(NC(=O)Nc5ccccc5OC(F)F)cc4)c12)CCC3` [Compound 68], the EC50 with MV4-11 cells was less than 100 nM; in experiment [2], 100 to 1000 nM. The IC50 in experiment [1] is 100 to 1000 nM.
For `Nc1ncnc2c3c(n(-c4ccc(NC(=O)Nc5cc(C(F)(F)F)ccc5Cl)cc4)c12)CCC3` [Compound 69], the EC50 in the experiment with MV4-11 cells was less than 100 nM; in experiment [2], 100 to 1000 nM. The IC50 in experiment [1] was 100 to 1000 nM.
As for `N#Cc1ccccc1NC(=O)Nc1ccc(-n2c3c(c4ncnc(N)c42)CCC3)cc1` [Compound 71], the EC50 is 100 to 1000 nM with MV4-11 cells and greater than 1000 nM in experiment [2]. Further, the IC50 in experiment [1] is greater than 1000 nM.
For the molecule `CS(=O)(=O)c1cccc(NC(=O)Nc2ccc(-n3c4c(c5ncnc(N)c53)CCC4)cc2)c1` [Compound 72], the half-maximal effective concentration (EC50) in the experiment with MV4-11 cells was less than 100 nM; in experiment [2], 100 to 1000 nM. The 50% inhibitory concentration (IC50) in experiment [1] lay in the range of 100 to 1000 nM.
`C[C@@H](NC(=O)Nc1ccc(-n2c3c(c4ncnc(N)c42)CCC3)cc1)c1ccc(F)cc1` [Compound 73]: the EC50 in the experiment with MV4-11 cells is less than 100 nM; in experiment [2], 100 to 1000 nM. Also, the IC50 in experiment [1] lay in the range of 100 to 1000 nM.
